{
  "source": "patent US4576956A",
  "about": "“Iodo propargylaminoisoxazoles as fungicides” (Shionogi & Co., Ltd., priority 1982, dated 1986)",
  "data": [
    {"tested_on": "Candida albicans M-9", "test": "Test A-1 Anti-fungal Activity (MIC), microwell dilution", "type": "cell-based", "settings": "M9, C. albicans M-9, in vitro, 1×10^5 cells/ml", "method": "(§1) Test A-1 Anti-fungal Activity (MIC)\n(§2) The concentration of the test cells was 1×10^5 cells/ml and the activity was measured by a microwell dilution method. The structure of the test compounds is referred to in the Examples.", "units": {"MIC": "mg/L"}, "values": [
      {"smiles": "Cc1cc(N(C)CC#CI)on1", "note": "[Comp. 3]", "MIC": 0.4},
      {"smiles": "CN(CC#CI)c1cc(C2CC2)no1", "note": "[Comp. 8]", "MIC": 0.8},
      {"smiles": "CN(CC#CI)c1cc(-c2ccco2)no1", "note": "[Comp. 10]", "MIC": 0.8},
      {"smiles": "CN(CC#CI)c1cc(-c2ccccc2)no1", "note": "[Comp. 13]", "MIC": 3.1},
      {"smiles": "CCN(CC#CI)c1onc(C)c1C", "note": "[Comp. 21]", "MIC": 1.6},
      {"smiles": "Cc1noc(C)c1NCC#CI", "note": "[compound 38, 3,5-dimethyl-4-(3-iodo-2-propynylamino)isoxazole]", "MIC": 0.8}
    ]},
    {"tested_on": "Aspergillus fumigatus", "test": "Test A-1 Anti-fungal Activity (MIC), microwell dilution", "type": "cell-based", "settings": "in vitro, 1×10^5 cells/ml", "method": "as §1, §2", "units": {"MIC": "mg/L"}, "values": [
      {"smiles": "Cc1cc(N(C)CC#CI)on1", "note": "[Comp. 3]", "MIC": 0.8},
      {"smiles": "CN(CC#CI)c1cc(C2CC2)no1", "note": "[Comp. 8]", "MIC": 1.6},
      {"smiles": "CN(CC#CI)c1cc(-c2ccco2)no1", "note": "[Comp. 10]", "MIC": 1.6},
      {"smiles": "CN(CC#CI)c1cc(-c2ccccc2)no1", "note": "[Comp. 13]", "MIC": 3.1},
      {"smiles": "CCN(CC#CI)c1onc(C)c1C", "note": "[Comp. 21]", "MIC": 1.6},
      {"smiles": "Cc1noc(C)c1NCC#CI", "note": "[compound 38, 3,5-dimethyl-4-(3-iodo-2-propynylamino)isoxazole]", "MIC": 3.1}
    ]},
    {"tested_on": "Pyricularia oryzae", "test": "not given", "type": "in vivo", "settings": "500 ppm; rice plant blast, 24 hours + 7 days", "units": {"Percent Disease Control": "%"}, "values": [
      {"smiles": "CN(CC#CI)c1cc(-c2ccccc2)no1", "note": "[Comp. 13]", "Percent Disease Control": 99},
      {"smiles": "CN(CC#CI)c1onc(-c2ccccc2)c1Cl", "note": "[Comp. 27]", "Percent Disease Control": 100},
      {"smiles": "Cc1c(N(C)CC#CI)noc1-c1ccccc1", "note": "[compound 36]", "Percent Disease Control": 90}
    ]},
    {"tested_on": "Mycoplasma hyopneumonia", "test": "growth inhibition of a swine enzootic pneumonia-causative bacteria", "type": "cell-based", "settings": "one range for the listed compounds, read-out: concentration inhibiting the growth", "units": {"MIC": "mg/L"}, "values": [
      {"smiles": "CN(CC#CI)c1cc(C2CCCCC2)no1", "note": "[Comp. 9]", "MIC": "3.13 to 12.5"},
      {"smiles": "CN(CC#CI)c1cc(-c2ccccc2)no1", "note": "[Comp. 13]", "MIC": "3.13 to 12.5"},
      {"smiles": "CN(CC#CI)c1onc2c1CCCC2", "note": "[Comp. 15]", "MIC": "3.13 to 12.5"},
      {"smiles": "Cc1onc(NCC#CI)c1Cl", "note": "[compound 34, 3-(3-iodo-2-propynyl)-amino-4-chloro-5-methylisoxazole]", "MIC": "3.13 to 12.5"}
    ]},
    {"tested_on": "Botrytis cinerea", "test": "Test B-1 Control Test of Botrytis Rot (Gray Mold) of Cucumber", "type": "in vivo", "settings": "500 ppm, 3 days", "method": "Test B-1 Control Test of Botrytis Rot (Gray Mold) of Cucumber Seedlings of Cucumber (Cultivar: Matsukaze) were planted and grown in soil in vinyl-chloride cups of 9 cm in diameter in a greenhouse. […] The treated cucumbers were kept for 3 days in a greenhouse (20° C.) and then disease degrees were counted. Standard of Evaluation […] (2) A slight soaked lesion on the reverse of the test leaf . . . × 5 (3) A slight fade of the leaf . . . × 10 (4) The inoculated part was faded and the fading expanded erosively . . . × 20 [formula]", "units": {"Percent Disease Control": "%"}, "values": [
      {"smiles": "CN(CC#CI)c1onc2c1CCCC2", "note": "[Comp. 15]", "Percent Disease Control": 100},
      {"smiles": "Cc1onc(NCC#CI)c1Cl", "note": "[compound 34, 3-(3-iodo-2-propynyl)-amino-4-chloro-5-methylisoxazole]", "Percent Disease Control": 100}
    ]},
    {"tested_on": "Trichophyton asteroides", "test": "Test A-1 Anti-fungal Activity (MIC), microwell dilution", "type": "cell-based", "settings": "T. asteroides, in vitro, 1×10^5 cells/ml", "method": "as §1\nThe following results (Table 1) were obtained in an anti-fungal activity test in vitro against Aspergillus fumigatus, Candida albicans M-9 and Trichophyton asteroides. The concentration of the test cells was 1×10^5 cells/ml and the activity was measured by a microwell dilution method. The structure of the test compounds is referred to in the Examples.", "units": {"MIC": "mg/L"}, "values": [
      {"smiles": "Cc1cc(N(C)CC#CI)on1", "note": "[Comp. 3]", "MIC": 1.6},
      {"smiles": "CN(CC#CI)c1cc(C2CC2)no1", "note": "[Comp. 8]", "MIC": 3.1},
      {"smiles": "CN(CC#CI)c1cc(-c2ccco2)no1", "note": "[Comp. 10]", "MIC": 0.8},
      {"smiles": "CN(CC#CI)c1cc(-c2ccccc2)no1", "note": "[Comp. 13]", "MIC": 3.1},
      {"smiles": "CCN(CC#CI)c1onc(C)c1C", "note": "[Comp. 21]", "MIC": 1.6},
      {"smiles": "Cc1noc(C)c1NCC#CI", "note": "[compound 38, 3,5-dimethyl-4-(3-iodo-2-propynylamino)isoxazole]", "MIC": 0.8}
    ]},
    {"tested_on": "Pseudoperonospora cubensis", "test": "Test B-3 Control Test to Downy Mildew of Cucumber", "type": "in vivo", "settings": "500 ppm, 7 days", "method": "Test B-3 Control Test to Downy Mildew of Cucumber\nEach cucumber seedling was sprayed with 2.5 ml of a test solution in the same manner as in Test B-1. After the spraying, the seedlings were kept at 25°-26° C. for a day and a zoosporangium suspension or Pseudoperonospora cubensis was inoculated at a rate of five spots per leaf on a primary leaf. The treated seedlings were kept in a greenhouse for 7 days and then observed.\n(2) Slight disease at the inoculation spot . . . X5\n(3) A disease spot in the same size as the inoculation spot (without spreading) . . . x10\n(4) A disease spot larger than the inoculation spot . . . x20\nDisease degree and percent disease control were calculated in the same manner as in Test B-1.", "units": {"Percent Disease Control": "%"}, "values": [
      {"smiles": "CN(CC#CI)c1cc(C2CCCCC2)no1", "note": "[Comp. 9]", "Percent Disease Control": 100},
      {"smiles": "Cc1onc(NCC#CI)c1Cl", "note": "[compound 34, 3-(3-iodo-2-propynyl)-amino-4-chloro-5-methylisoxazole]", "Percent Disease Control": 100}
    ]},
    {"tested_on": "fungi", "test": "not given", "settings": "prior art, Japanese patent publications; cited from earlier work", "values": [
      {"smiles": "Cc1cc(OCC#CI)no1", "note": "[3-(3-iodo-2-propynyl)oxy-5-methylisoxazole]", "anti-fungal activity": "anti-fungal and anti-septic agent for woods"},
      {"smiles": "IC#CCOc1noc2ccccc12", "note": "[3-(3-iodo-2-propynyloxy)benzisoxazole]", "anti-fungal activity": "has the same activity"}
    ]},
    {"tested_on": "Colletotrichum lagenarium", "test": "Test B-4 Control Test to Anthracnose of Cucumber", "type": "in vivo", "settings": "500 ppm, 3 + 3 days", "method": "Test B-4 Control Test to Anthracnose of Cucumber Each cucumber seedling was sprayed with 2.5 ml of a test solution in the same manner as in Test B-1. After the spraying, the seedlings were kept at 25°-26° C. for a day and were inoculated with five filter-paper disks of 6 mm in diameter saturated with a conidium suspension of Colletotrichum lagenarium at a concentration of 1×10^6 conidia/ml. The treated seedlings were kept in a greenhouse (25° C.) for 3 days and further kept at below 25° C. for 3 days. Standard of Evaluation The same as noted in Test B-3.", "units": {"Percent Disease Control": "%"}, "values": [
      {"smiles": "Cc1onc(NCC#CI)c1Cl", "note": "[compound 34, 3-(3-iodo-2-propynyl)-amino-4-chloro-5-methylisoxazole]", "Percent Disease Control": 100}
    ]}
  ]
}
